Assay results taken from article PMC3794980, “Identification of Conserved and HLA Promiscuous DENV3 T-Cell Epitopes” (PLoS Neglected Tropical Diseases, 2013).
Where no end group is shown, it is not given here.

Key:
Assay in all cases: biochemical
Type in all cases: binding
DRB3*0101 = DRB3*0101 (Homo sapiens, UniProt P01903+P79483)
DRB4*0101 = DRB4*0101 (Homo sapiens, UniProt P01903+P13762, G164S)
DRB5*0101 = DRB5*0101 (Homo sapiens, UniProt P01903+Q30154)

CC[C@H](C)[C@H](NC(=O)[C@@H](NC(=O)[C@H](CCCNC(=N)N)NC(=O)[C@H](CCC(=O)O)NC(=O)[C@@H]1CCCN1C(=O)CNC(=O)[C@H](CC(=O)O)NC(=O)[C@@H](NC(=O)[C@H](CC(C)C)NC(=O)[C@@H](NC(=O)[C@@H](NC(=O)[C@@H]1CCCN1C(=O)[C@H](CCCCN)NC(=O)[C@H](CC(C)C)NC(=O)[C@@H](N)CS)C(C)C)[C@@H](C)CC)[C@@H](C)O)C(C)C)C(=O)O [NS3 429-443]
IC50 (DRB3*0101): 0.0057 µM
IC50 (DRB4*0101): 1.21 µM
IC50 (DRB5*0101): 13200 nM

CC(C)C[C@H](NC(=O)[C@H](CCCCN)NC(=O)[C@@H](NC(=O)[C@H](CCCCN)NC(=O)[C@H](CCC(N)=O)NC(=O)[C@H](Cc1ccc(O)cc1)NC(=O)[C@H](CCC(=O)O)NC(=O)[C@@H](NC(=O)[C@H](CC(=O)O)NC(=O)[C@H](Cc1ccccc1)NC(=O)[C@@H](NC(=O)[C@@H](N)CCCCN)[C@@H](C)O)[C@@H](C)O)[C@@H](C)O)C(=O)N[C@@H](CC(N)=O)C(=O)N[C@@H](CC(=O)O)C(=O)N[C@@H](Cc1c[nH]c2ccccc12)C(=O)O [NS3 389-403]
IC50 (DRB3*0101): 4.53 µM
IC50 (DRB4*0101): 9.91 µM
IC50 (DRB5*0101): 2330 nM

CC[C@H](C)[C@H](NC(=O)[C@H](C)NC(=O)CNC(=O)[C@@H](NC(=O)[C@H](CCC(=O)O)NC(=O)CNC(=O)[C@@H](NC(=O)[C@@H](NC(=O)[C@@H](NC(=O)[C@H](CCC(N)=O)NC(=O)[C@H](Cc1ccccc1)NC(=O)[C@@H](NC(=O)CNC(=O)[C@@H]1CCCN1)[C@@H](C)O)[C@@H](C)O)[C@@H](C)O)[C@@H](C)O)[C@@H](C)CC)C(=O)N[C@@H](C)C(=O)O [NS3 113-127]
IC50 (DRB3*0101): 3.07 µM
IC50 (DRB4*0101): 1.84 µM
IC50 (DRB5*0101): 2100 nM

CC[C@H](C)[C@H](NC(=O)[C@H](C)NC(=O)[C@@H](N)CCSC)C(=O)N[C@@H](CO)C(=O)NCC(=O)N[C@@H](CC(=O)O)C(=O)N[C@@H](CC(=O)O)C(=O)N[C@@H](CS)C(=O)N[C@H](C(=O)N[C@H](C(=O)N[C@@H](CCCCN)C(=O)N1CCC[C@H]1C(=O)N[C@H](C(=O)N[C@@H](CC(=O)O)C(=O)N[C@@H](CC(=O)O)C(=O)N[C@@H](CCCNC(=N)N)C(=O)N[C@@H](Cc1ccccc1)C(=O)O)[C@@H](C)CC)C(C)C)C(C)C [NS5 658-674]
IC50 (DRB3*0101): 1.93 µM
IC50 (DRB4*0101): 19.4 µM
IC50 (DRB5*0101): 1540 nM

CC[C@H](C)[C@H](NC(=O)[C@H](CC(C)C)NC(=O)[C@H](CCCCN)NC(=O)CNC(=O)[C@H](CO)NC(=O)[C@@H](NC(=O)[C@@H](NC(=O)[C@@H](NC(=O)[C@@H](NC(=O)[C@H](CCCNC(=N)N)NC(=O)[C@H](CC(C)C)NC(=O)[C@@H](N)CO)[C@@H](C)O)[C@@H](C)O)[C@@H](C)O)C(C)C)C(=O)N[C@@H](Cc1c[nH]cn1)C(=O)N[C@@H](CCC(=O)O)C(=O)N[C@@H](Cc1c[nH]c2ccccc12)C(=O)O [NS1 297-311]
IC50 (DRB3*0101): 12.4 µM
IC50 (DRB4*0101): 5.31 µM
IC50 (DRB5*0101): 2110 nM

VTFKNAHAKKPEVVV [Envelope 236-250]
IC50 (DRB3*0101): 18.2 µM
IC50 (DRB4*0101): 6.76 µM
IC50 (DRB5*0101): 30 nM

CC[C@H](C)[C@H](NC(=O)CNC(=O)[C@H](CO)NC(=O)[C@H](CCCCN)NC(=O)[C@H](CCCCN)NC(=O)[C@H](Cc1ccc(O)cc1)NC(=O)[C@H](CC(C)C)NC(=O)[C@H](CC(=O)O)NC(=O)[C@H](Cc1ccccc1)NC(=O)[C@H](CCC(=O)O)NC(=O)[C@@H](N)CCCCN)C(=O)N[C@H](C(=O)N[C@@H](CCC(=O)O)C(=O)N[C@H](C(=O)N[C@@H](CC(=O)O)C(=O)N[C@@H](CCCNC(=N)N)C(=O)N[C@H](C(=O)O)[C@@H](C)O)C(C)C)[C@@H](C)O [NS5 23-39]
IC50 (DRB3*0101): 5.8 µM
IC50 (DRB4*0101): 3.43 µM
IC50 (DRB5*0101): 10100 nM

CC(C)C[C@H](NC(=O)[C@H](Cc1ccccc1)NC(=O)CN)C(=O)N[C@@H](CC(N)=O)C(=O)N[C@@H](CCC(=O)O)C(=O)N[C@@H](CC(=O)O)C(=O)N[C@@H](Cc1c[nH]cn1)C(=O)N[C@@H](Cc1c[nH]c2ccccc12)C(=O)N[C@@H](Cc1ccccc1)C(=O)N[C@@H](CO)C(=O)N[C@@H](CCCNC(=N)N)C(=O)N[C@@H](CCC(=O)O)C(=O)N[C@@H](CC(N)=O)C(=O)N[C@@H](CO)C(=O)N[C@@H](Cc1ccc(O)cc1)C(=O)N[C@@H](CO)C(=O)NCC(=O)O [NS5 489-505]
IC50 (DRB3*0101): 0.387 µM
IC50 (DRB4*0101): 13.9 µM
IC50 (DRB5*0101): 936 nM

CSCC[C@H](NC(=O)[C@H](CCSC)NC(=O)[C@H](CC(N)=O)NC(=O)[C@H](Cc1ccc(O)cc1)NC(=O)[C@@H](NC(=O)[C@H](CS)NC(=O)[C@H](CO)NC(=O)CN)C(C)C)C(=O)NCC(=O)N[C@@H](CCCCN)C(=O)N[C@@H](CCCNC(=N)N)C(=O)N[C@@H](CCC(=O)O)C(=O)N[C@@H](CCCCN)C(=O)N[C@@H](CCCCN)C(=O)N[C@@H](CC(C)C)C(=O)NCC(=O)N[C@@H](CCC(=O)O)C(=O)O [NS5 447-463]
IC50 (DRB3*0101): 1.76 µM
IC50 (DRB4*0101): 8.47 µM
IC50 (DRB5*0101): 25 nM

CC[C@H](C)[C@H](NC(=O)[C@@H](N)CCCCN)C(=O)N[C@H](C(=O)N[C@@H](CCC(N)=O)C(=O)N[C@@H](Cc1c[nH]c2ccccc12)C(=O)N[C@@H](CC(C)C)C(=O)N[C@@H](CCC(=O)O)C(=O)N[C@H](C(=O)N[C@@H](CCCCN)C(=O)NCC(=O)N[C@H](C(=O)N[C@@H](CCC(=O)O)C(=O)N[C@@H](CCCNC(=N)N)C(=O)N[C@@H](CC(C)C)C(=O)N[C@@H](CCCCN)C(=O)N[C@@H](CCCNC(=N)N)C(=O)N[C@@H](CCSC)C(=O)O)C(C)C)[C@@H](C)O)[C@@H](C)O [NS5 642-658]
IC50 (DRB3*0101): 12.2 µM
IC50 (DRB4*0101): 15.3 µM
IC50 (DRB5*0101): 5.1 nM

CC(C)C[C@H](NC(=O)[C@H](CCCCN)NC(=O)CNC(=O)[C@H](CO)NC(=O)[C@@H](NC(=O)[C@@H](NC(=O)[C@@H](NC(=O)[C@@H](NC(=O)[C@H](CCCNC(=N)N)NC(=O)[C@H](CC(C)C)NC(=O)[C@H](CO)NC(=O)[C@@H]1CCCN1C(=O)CNC(=O)[C@H](CCCNC(=N)N)NC(=O)[C@@H](N)[C@@H](C)O)[C@@H](C)O)[C@@H](C)O)[C@@H](C)O)C(C)C)C(=O)O [NS1 293-307]
IC50 (DRB3*0101): 2.28 µM
IC50 (DRB4*0101): 0.793 µM
IC50 (DRB5*0101): 2610 nM

CC(C)C[C@H](N)C(=O)N[C@H](C(=O)N[C@@H](Cc1ccc(O)cc1)C(=O)N[C@@H](CCC(N)=O)C(=O)N[C@@H](CC(N)=O)C(=O)N[C@@H](CCCCN)C(=O)N[C@H](C(=O)N[C@H](C(=O)N[C@@H](CCCCN)C(=O)N[C@H](C(=O)N[C@@H](CCC(N)=O)C(=O)N[C@@H](CCCNC(=N)N)C(=O)N1CCC[C@H]1C(=O)N[C@H](C(=O)N1CCC[C@H]1C(=O)N[C@@H](CCCCN)C(=O)NCC(=O)O)[C@@H](C)O)C(C)C)C(C)C)C(C)C)[C@@H](C)O [NS5 570-586]
IC50 (DRB3*0101): 4.57 µM
IC50 (DRB4*0101): 0.013 µM
IC50 (DRB5*0101): 28 nM

CC[C@H](C)[C@H](NC(=O)[C@@H](N)CCSC)C(=O)N[C@H](C(=O)N1CCC[C@H]1C(=O)N[C@@H](CCCCN)C(=O)N[C@@H](CO)C(=O)N[C@@H](CC(C)C)C(=O)N[C@@H](C)C(=O)NCC(=O)N1CCC[C@H]1C(=O)N[C@H](C(=O)N[C@@H](CO)C(=O)N[C@@H](CCC(N)=O)C(=O)N[C@@H](Cc1c[nH]cn1)C(=O)N[C@@H](CC(N)=O)C(=O)O)[C@@H](C)CC)[C@@H](C)CC [NS1 241-255]
IC50 (DRB4*0101): 1.09 µM
IC50 (DRB5*0101): 3200 nM

CC[C@H](C)[C@H](NC(=O)[C@H](CCC(=O)O)NC(=O)CNC(=O)[C@H](CCCNC(=N)N)NC(=O)[C@H](CCCCN)NC(=O)[C@@H](N)CC(C)C)C(=O)N[C@H](C(=O)N[C@@H](Cc1c[nH]cn1)C(=O)N[C@@H](Cc1c[nH]cn1)C(=O)N[C@@H](C)C(=O)N[C@H](C(=O)N[C@@H](CO)C(=O)N[C@@H](CCCNC(=N)N)C(=O)NCC(=O)N[C@@H](CO)C(=O)N[C@@H](C)C(=O)N[C@@H](CCCCN)C(=O)O)C(C)C)[C@@H](C)O [NS5 45-61]
IC50 (DRB3*0101): 7.5 µM
IC50 (DRB4*0101): 0.0085 µM
IC50 (DRB5*0101): 449 nM

CC[C@H](C)[C@H](NC(=O)[C@H](Cc1ccc(O)cc1)NC(=O)CNC(=O)[C@H](CC(C)C)NC(=O)[C@H](CCCCN)NC(=O)[C@H](Cc1c[nH]cn1)NC(=O)[C@@H](N)CC(C)C)C(=O)N[C@@H](CC(C)C)C(=O)N[C@@H](CCCNC(=N)N)C(=O)N[C@@H](CC(=O)O)C(=O)N[C@H](C(=O)N[C@@H](CO)C(=O)N[C@@H](CCCCN)C(=O)N[C@H](C(=O)N1CCC[C@H]1C(=O)NCC(=O)NCC(=O)O)[C@@H](C)CC)[C@@H](C)CC [NS5 511-527]
IC50 (DRB4*0101): 0.057 µM
IC50 (DRB5*0101): 611 nM

CC[C@H](C)[C@H](NC(=O)[C@@H]1CCCN1C(=O)[C@H](CCC(=O)O)NC(=O)[C@H](CC(C)C)NC(=O)[C@@H](N)CS)C(=O)N[C@@H](CCC(=O)O)C(=O)NCC(=O)N[C@@H](CCCCN)C(=O)N[C@H](C(=O)N[C@H](C(=O)N[C@@H](CCC(N)=O)C(=O)N[C@@H](Cc1ccc(O)cc1)C(=O)N[C@@H](CCC(=O)O)C(=O)N[C@@H](CC(N)=O)C(=O)N[C@@H](CC(C)C)C(=O)O)C(C)C)C(C)C [Envelope 121-135]
IC50 (DRB4*0101): 1.1 µM
IC50 (DRB5*0101): 13300 nM

CSCC[C@H](NC(=O)[C@H](C)NC(=O)[C@H](CCSC)NC(=O)[C@H](CCC(N)=O)NC(=O)[C@@H](NC(=O)[C@@H](NC(=O)[C@@H](N)CCSC)C(C)C)[C@@H](C)O)C(=O)N[C@H](C(=O)N[C@@H](CC(=O)O)C(=O)N[C@H](C(=O)N[C@H](C(=O)N1CCC[C@H]1C(=O)N[C@@H](Cc1ccccc1)C(=O)NCC(=O)N[C@@H](CCC(N)=O)C(=O)N[C@@H](CCC(N)=O)C(=O)N[C@@H](CCCNC(=N)N)C(=O)O)[C@@H](C)O)[C@@H](C)O)[C@@H](C)O [NS5 336-352]
IC50 (DRB4*0101): 0.747 µM
IC50 (DRB5*0101): 10400 nM

CC[C@H](C)[C@H](NC(=O)[C@H](CC(C)C)NC(=O)[C@H](CCC(=O)O)NC(=O)[C@@H](N)Cc1c[nH]cn1)C(=O)N[C@@H](CCSC)C(=O)N[C@@H](CCCCN)C(=O)N[C@@H](CC(=O)O)C(=O)NCC(=O)N[C@@H](CCCNC(=N)N)C(=O)N[C@@H](CCCCN)C(=O)N[C@@H](CC(C)C)C(=O)N[C@H](C(=O)N[C@H](C(=O)N1CCC[C@H]1C(=O)N[C@@H](CS)C(=O)N[C@@H](CCCNC(=N)N)C(=O)O)C(C)C)C(C)C [NS5 714-729]
IC50 (DRB4*0101): 4.02 µM
IC50 (DRB5*0101): 245 nM

CC[C@H](C)[C@H](NC(=O)[C@H](CC(C)C)NC(=O)[C@H](CC(=O)O)NC(=O)[C@H](CCCCN)NC(=O)[C@@H](N)CCCCN)C(=O)N[C@@H](CO)C(=O)N[C@@H](Cc1ccc(O)cc1)C(=O)NCC(=O)NCC(=O)NCC(=O)N[C@@H](Cc1c[nH]c2ccccc12)C(=O)N[C@@H](CCCNC(=N)N)C(=O)N[C@@H](CC(C)C)C(=O)N[C@@H](CO)C(=O)N[C@@H](C)C(=O)O [NS3 73-87]
IC50 (DRB4*0101): 3.47 µM
IC50 (DRB5*0101): 71 nM
